Calls of active or inactive are those of the source.
Experiments:
[1] = molecular target: Ras and Rab interactor 1/Tyrosine-protein kinase ABL1 (Homo sapiens, UniProt P00519+Q13671); assay type: functional;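 further: biochemical TR-FRET dose-response test measuring inhibition of binding between Rin1 and Abl proteins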
Prothrombin = Prothrombin (Homo sapiens, UniProt P00734); assay: Thrombin 1536 HTS Dose Response Confirmation. [Related pubchem assays: 1046 (Thrombin 1536 HTS; hits were confirmed in this assay)]; assay type: functional
[2] = Luminescence Cell-Based Dose Retest to Confirm Inhibitors of Cancer Stem Cells. [Related pubchem assays (depositor defined):AID2717, AID2721]; assay type: functional; settings: Homo sapiens
Paired box protein Pax-8 = Paired box protein Pax-8 (Homo sapiens, UniProt Q06710); assay: inhibitors of PAX8-driven TPO luciferase reporter, dose response, RMG-I cells, cherry-pick (AID 687027); assay type: functional, cell-based;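 further: luciferase reporter driven by Pax8 target thyroperoxidase promoter measured by SteadyGlo luminescence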
Paired box protein Pax-8, sequence (Q06710 whole entry): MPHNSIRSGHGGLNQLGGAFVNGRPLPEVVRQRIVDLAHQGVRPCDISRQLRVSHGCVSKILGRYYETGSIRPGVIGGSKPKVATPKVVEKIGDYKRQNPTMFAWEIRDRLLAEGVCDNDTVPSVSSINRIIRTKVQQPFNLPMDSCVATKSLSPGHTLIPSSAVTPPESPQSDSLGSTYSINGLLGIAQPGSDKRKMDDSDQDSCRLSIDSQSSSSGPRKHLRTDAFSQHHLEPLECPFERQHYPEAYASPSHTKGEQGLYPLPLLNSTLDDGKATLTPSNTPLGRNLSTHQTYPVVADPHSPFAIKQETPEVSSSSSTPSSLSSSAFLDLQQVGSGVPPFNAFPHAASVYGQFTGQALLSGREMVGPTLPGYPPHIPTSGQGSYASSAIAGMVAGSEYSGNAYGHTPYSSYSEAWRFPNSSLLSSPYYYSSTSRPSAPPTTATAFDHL

Protein RecA = molecular target: T1, Protein RecA (Mycobacterium tuberculosis, UniProt P9WHJ3); assay: Fluorescence Cell-Free Homogeneous Dose Retest to Identify Inhibitors of RecA-Intein Splicing Activity. [Related pubchem assays (depositor defined):AID2097, AID2223, AID489010, AID492950]; assay type: functional
T1 sequence (P9WHJ3 whole entry): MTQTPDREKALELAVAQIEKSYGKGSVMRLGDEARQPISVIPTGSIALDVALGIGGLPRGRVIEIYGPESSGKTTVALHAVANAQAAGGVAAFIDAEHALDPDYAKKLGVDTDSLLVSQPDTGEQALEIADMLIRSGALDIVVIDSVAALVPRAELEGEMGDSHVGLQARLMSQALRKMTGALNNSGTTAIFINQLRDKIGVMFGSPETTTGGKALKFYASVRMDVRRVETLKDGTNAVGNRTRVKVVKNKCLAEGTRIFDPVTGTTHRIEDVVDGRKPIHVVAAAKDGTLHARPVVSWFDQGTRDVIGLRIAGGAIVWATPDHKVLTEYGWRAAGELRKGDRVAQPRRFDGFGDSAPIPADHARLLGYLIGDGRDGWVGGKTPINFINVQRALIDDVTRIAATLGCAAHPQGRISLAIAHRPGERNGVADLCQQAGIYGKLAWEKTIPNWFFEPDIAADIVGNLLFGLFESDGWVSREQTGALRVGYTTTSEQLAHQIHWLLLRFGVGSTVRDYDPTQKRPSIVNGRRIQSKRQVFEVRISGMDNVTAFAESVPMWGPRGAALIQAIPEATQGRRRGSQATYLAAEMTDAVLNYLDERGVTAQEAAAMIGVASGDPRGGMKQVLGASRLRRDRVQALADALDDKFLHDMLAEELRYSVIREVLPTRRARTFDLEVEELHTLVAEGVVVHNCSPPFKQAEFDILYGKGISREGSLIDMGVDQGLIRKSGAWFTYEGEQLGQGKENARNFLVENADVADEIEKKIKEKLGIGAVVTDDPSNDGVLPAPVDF

[3] = molecular target: T2, Replicative DNA helicase DnaB (Mycobacterium tuberculosis, UniProt P9WMR3); assay: DnaB intein splicing inhibitors, dose response, biochemical, cell-free fluorescence (AID 449749); assay type: functional
T2 sequence (P9WMR3 whole entry): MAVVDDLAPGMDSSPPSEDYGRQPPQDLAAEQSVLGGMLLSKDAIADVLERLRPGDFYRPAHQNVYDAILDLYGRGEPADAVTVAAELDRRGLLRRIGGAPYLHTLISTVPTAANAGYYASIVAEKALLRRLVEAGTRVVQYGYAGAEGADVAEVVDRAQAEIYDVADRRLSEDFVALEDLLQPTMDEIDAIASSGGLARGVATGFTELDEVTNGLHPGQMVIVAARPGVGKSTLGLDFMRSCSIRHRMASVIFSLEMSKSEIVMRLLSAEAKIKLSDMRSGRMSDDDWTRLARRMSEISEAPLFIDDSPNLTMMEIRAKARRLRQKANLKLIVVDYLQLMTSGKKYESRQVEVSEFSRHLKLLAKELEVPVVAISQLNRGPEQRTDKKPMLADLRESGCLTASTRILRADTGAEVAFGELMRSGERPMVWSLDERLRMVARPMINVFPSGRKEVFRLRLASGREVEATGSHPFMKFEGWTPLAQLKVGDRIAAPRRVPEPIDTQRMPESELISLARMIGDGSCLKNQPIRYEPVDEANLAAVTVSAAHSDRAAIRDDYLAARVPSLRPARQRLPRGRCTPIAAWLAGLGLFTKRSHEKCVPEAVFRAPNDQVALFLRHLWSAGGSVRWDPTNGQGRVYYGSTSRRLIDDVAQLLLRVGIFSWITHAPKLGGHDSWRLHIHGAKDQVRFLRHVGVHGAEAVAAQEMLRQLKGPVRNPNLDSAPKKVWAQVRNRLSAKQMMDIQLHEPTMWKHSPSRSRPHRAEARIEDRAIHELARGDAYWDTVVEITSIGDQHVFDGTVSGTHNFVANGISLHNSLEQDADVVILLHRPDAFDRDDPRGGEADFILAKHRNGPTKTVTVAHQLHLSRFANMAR

[4] = molecular target: T3, Microphthalmia-associated transcription factor (Homo sapiens, UniProt O75030); assay: TRPM1 promoter luciferase signal decrease, dose response, MITF inhibitor project, cell-based, SK-MEL-5, cherry-picked, set 3 (AID 493073); assay type: functional
T3 sequence (O75030 whole entry): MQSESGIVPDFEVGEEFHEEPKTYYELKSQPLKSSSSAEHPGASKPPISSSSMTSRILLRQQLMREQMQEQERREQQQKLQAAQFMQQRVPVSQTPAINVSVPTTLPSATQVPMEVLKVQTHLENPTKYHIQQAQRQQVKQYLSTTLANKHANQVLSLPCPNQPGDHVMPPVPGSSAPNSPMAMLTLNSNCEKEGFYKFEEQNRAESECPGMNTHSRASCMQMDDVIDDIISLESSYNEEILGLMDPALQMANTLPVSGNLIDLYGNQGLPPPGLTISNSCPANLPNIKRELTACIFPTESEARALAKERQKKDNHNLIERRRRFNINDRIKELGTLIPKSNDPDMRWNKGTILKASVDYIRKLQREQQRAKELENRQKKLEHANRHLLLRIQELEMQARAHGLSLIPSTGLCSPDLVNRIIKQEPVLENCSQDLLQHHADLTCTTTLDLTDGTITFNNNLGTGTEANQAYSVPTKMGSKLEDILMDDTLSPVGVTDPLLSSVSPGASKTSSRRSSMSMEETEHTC

[5] = molecular target: T4, Long-chain-fatty-acid--AMP ligase FadD28 (Mycobacterium tuberculosis, UniProt P9WQ59); assay: Fluorescence polarization aasay to screen for inhibitors that compete for the binding of FadD28 to a bisubstrate Measured in Biochemical System Using Plate Reader - 2147-01_Inhibitor_Dose_CherryPick_Activity.; assay type: functional, Mycobacterium tuberculosis H37Rv
T4 sequence (P9WQ59 whole entry): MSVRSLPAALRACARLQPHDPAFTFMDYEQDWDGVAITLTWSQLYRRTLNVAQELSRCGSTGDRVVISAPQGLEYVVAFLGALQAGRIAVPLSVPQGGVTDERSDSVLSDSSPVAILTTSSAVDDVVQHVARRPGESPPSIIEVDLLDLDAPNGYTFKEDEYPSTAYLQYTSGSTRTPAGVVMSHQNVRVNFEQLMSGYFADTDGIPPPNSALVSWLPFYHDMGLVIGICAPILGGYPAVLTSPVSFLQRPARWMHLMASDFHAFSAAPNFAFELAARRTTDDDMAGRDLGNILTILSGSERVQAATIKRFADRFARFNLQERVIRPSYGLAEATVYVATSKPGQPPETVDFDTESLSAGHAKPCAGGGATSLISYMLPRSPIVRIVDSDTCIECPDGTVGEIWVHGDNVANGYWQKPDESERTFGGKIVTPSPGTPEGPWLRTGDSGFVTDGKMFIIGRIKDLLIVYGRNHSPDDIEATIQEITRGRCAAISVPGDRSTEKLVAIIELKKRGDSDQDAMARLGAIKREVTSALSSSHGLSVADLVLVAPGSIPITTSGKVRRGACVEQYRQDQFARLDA

Vero [6] = assay: cells; assay type: functional; settings: Chlorocebus sabaeus
Vero [7] = assay: cells; assay type: functional, cell-based; settings: Chlorocebus sabaeus
[8] = cytotoxicity in HEK-293T cells, dose response, cytotoxicity control for TCR NF-kB inhibitor project, luminescence, T-cell screen hits (AID 489026); assay type: functional, cell-based;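 further: cells exposed to compound about 14 hours before the viability readout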
[9] = HEp-2 cell cytotoxicity, dose response, cytotoxicity control for RSV inhibitor project, HTS (AID 2410); assay type: functional; settings: human respiratory syncytial virus
H9c2 = assay: cells; assay type: functional, cell-based; settings: Rattus norvegicus, H9c2, Myocardium;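 further: confirmatory concentration-response retest of ultra-high-throughput screening hits for modulation of myocardial damage; cell death induced by hydrogen peroxide oxidative stress; compound pretreatment for 60 min then peroxide exposure for 2 h; potency is for protecting the cells against peroxide damage rather than for killing them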
[10] = cytotoxicity toward DRD oncogenic fibroblasts, dose response, cell-based, non-viral oncogenic, luminescence (AID 1934); assay type: functional; settings: Homo sapiens
BJ [11] = assay: cytotoxicity toward BJ-TERT-LT-ST fibroblasts, dose response, cell-based, RAS-independent, luminescence (AID 1935); assay type: functional; settings: Homo sapiens;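 further: BJ fibroblasts immortalized with TERT plus LT and ST oncogenes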
BJ [12] = assay: cells; assay type: functional, cell-based; settings: Homo sapiens
BJ [13] = assay: cytotoxicity toward Ras-transformed BJeLR fibroblasts, dose response, cell-based, alamar blue fluorescence, cherrypicked samples (AID 2631); assay type: functional; settings: Homo sapiens;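 further: confirmatory dose-response assay in RAS-dependent BJ fibroblasts engineered with TERT, LT and ST, with cytotoxicity read by fluorescence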
BJ [14] = assay: cytotoxicity toward BJ-TERT fibroblasts, dose response, cell-based, RAS-independent, luminescence (AID 1933); assay type: functional; settings: Homo sapiens
[15] = intracellular Trypanosoma cruzi inhibitors in host cells – cell-based, plate reader, cherry-pick samples, set 3, dose response (AID 651818); assay type: functional;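 further: compounds incubated with infected cells for about four days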
[16] = inhibitors of intracellular T. cruzi replication, confirmation, NIH3T3 host cells, beta-gal luminescence (AID 2044); assay type: functional, cell-based;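 further: intracellular parasites grown in NIH/3T3 mouse fibroblasts as host cells; luminescent beta-galactosidase reporter signal from transgenic T. cruzi replicating inside host cells; inhibitors lower the luminescence signal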
[17] = cytotoxicity toward NIH3T3 fibroblasts, dose response, counter-screen, cell-based, ATP luminescence, mouse fibroblasts (AID 2010); assay type: functional;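 further: cells exposed to compound for about 90 hours before reading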
[18] = molecular target: FAD-linked sulfhydryl oxidase ALR (Homo sapiens, UniProt P55789); assay: inhibitors of human ALR sulfhydryl oxidase, dose response, biochemical, H2O2 detection, luminescence, cherry-pick (AID 493248)
FAD-linked sulfhydryl oxidase ALR, sequence (P55789 whole entry): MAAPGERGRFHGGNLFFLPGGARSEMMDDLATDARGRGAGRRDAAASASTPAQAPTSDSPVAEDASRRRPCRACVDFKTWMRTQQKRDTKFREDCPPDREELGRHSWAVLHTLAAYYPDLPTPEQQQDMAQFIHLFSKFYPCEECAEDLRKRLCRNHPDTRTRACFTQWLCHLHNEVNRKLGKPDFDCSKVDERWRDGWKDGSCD

Ras and Rab interactor 1/Tyrosine-protein kinase ABL1, sequence (P00519 whole entry): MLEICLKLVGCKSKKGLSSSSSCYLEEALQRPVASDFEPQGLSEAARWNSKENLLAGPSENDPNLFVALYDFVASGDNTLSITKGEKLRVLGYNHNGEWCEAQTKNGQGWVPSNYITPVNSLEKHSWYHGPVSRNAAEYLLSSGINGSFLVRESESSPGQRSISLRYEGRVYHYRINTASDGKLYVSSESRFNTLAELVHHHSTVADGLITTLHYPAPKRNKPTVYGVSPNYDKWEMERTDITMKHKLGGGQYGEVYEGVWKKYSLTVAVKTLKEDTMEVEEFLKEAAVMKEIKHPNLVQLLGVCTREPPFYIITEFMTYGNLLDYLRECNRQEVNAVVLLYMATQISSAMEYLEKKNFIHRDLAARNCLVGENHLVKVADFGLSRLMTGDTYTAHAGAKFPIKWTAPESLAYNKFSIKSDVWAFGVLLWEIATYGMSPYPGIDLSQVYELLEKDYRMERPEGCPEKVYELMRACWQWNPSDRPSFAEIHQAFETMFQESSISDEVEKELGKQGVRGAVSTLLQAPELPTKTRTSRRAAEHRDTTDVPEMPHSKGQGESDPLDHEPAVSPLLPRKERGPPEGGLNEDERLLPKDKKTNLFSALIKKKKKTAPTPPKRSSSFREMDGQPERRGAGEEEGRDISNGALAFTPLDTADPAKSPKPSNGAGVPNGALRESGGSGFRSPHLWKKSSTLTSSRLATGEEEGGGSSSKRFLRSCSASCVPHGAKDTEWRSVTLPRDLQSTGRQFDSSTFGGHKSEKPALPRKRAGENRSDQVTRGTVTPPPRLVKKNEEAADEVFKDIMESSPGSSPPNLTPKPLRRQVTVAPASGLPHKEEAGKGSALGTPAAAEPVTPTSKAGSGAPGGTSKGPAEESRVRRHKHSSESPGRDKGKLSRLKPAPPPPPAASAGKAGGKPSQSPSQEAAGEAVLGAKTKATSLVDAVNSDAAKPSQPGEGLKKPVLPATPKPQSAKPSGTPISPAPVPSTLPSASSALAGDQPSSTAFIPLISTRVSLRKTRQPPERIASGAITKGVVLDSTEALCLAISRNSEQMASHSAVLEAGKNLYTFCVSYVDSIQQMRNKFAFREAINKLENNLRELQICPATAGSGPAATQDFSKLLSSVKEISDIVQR
Ras and Rab interactor 1/Tyrosine-protein kinase ABL1, sequence (Q13671 whole entry): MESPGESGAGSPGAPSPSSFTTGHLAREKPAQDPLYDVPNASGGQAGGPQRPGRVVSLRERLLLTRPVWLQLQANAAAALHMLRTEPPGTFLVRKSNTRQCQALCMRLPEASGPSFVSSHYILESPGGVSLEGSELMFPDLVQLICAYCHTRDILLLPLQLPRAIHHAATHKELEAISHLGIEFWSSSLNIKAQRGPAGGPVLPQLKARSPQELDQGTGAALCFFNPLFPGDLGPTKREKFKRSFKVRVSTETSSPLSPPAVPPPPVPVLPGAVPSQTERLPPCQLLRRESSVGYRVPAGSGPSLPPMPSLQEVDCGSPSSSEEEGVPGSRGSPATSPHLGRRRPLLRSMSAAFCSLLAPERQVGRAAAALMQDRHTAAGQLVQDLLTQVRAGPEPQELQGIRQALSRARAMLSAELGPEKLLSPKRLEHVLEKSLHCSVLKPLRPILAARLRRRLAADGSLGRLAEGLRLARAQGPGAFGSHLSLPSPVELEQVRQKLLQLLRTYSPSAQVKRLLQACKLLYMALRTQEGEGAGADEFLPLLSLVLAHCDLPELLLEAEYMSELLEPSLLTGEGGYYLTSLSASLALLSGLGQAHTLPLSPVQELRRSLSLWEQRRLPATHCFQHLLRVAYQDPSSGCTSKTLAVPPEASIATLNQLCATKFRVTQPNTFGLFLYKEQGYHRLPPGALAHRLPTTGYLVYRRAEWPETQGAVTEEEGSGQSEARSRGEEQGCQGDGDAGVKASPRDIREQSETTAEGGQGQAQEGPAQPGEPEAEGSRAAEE

CCOC(=O)c1c(C)n(C(=O)c2ccco2)c(=O)n1C(=O)c1ccco1
IC50 [1]: 11 µM (inactive)
IC50 (Prothrombin): 0.533 µM (active)

O=C(Nc1ccccc1)NN(C(=O)CCl)c1ccccc1
AC50 [2]: 3.11 µM (active)
AC50 (Paired box protein Pax-8): 4.57 µM (active)
EC50 (Protein RecA): 0.861 µM (active)
AC50 [3]: 13.7 µM (active)
AC50 [4]: 8.5 µM (active)

CCc1cccc(NC(=O)CN2C(=O)NC3(CCCCCCC3)C2=O)c1
AC50 [5]: > 100 µM (inactive)

C[C@]12CC[C@H](O)C[C@H]1CC[C@@H]1[C@@H]2C[C@@H](O)[C@]2(C)[C@@H](C3=CC(=O)OC3)CC[C@]12O [DIGOXIGENIN]
CC50 (Vero [6]): 2.1 µM (active)
AC50 [2]: 1.16 µM (active)
IC50 (Vero [7]): < 0.05 µM (active)
AC50 (Paired box protein Pax-8): 2.35 µM (active)
IC50 [8]: > 80 µM (inactive)

Cc1ccc(C(=O)N2CC(C)CC(C)C2)cc1NC1=NC2CS(=O)(=O)CC2S1 (centres undefined)
IC50 [1]: 14.3 µM (inactive)

Cc1cccc(-n2c(C)cc(/C=N\NC(=O)c3cccs3)c2C)c1
CC50 (Vero [6]): > 25 µM (active)
IC50 (Vero [7]): 14.7 µM (active)
CC50 [9]: 23.4 µM (active)

NNC(=O)c1cc2ccccc2cc1O
IC50 (H9c2): > 79 µM (inactive)
AC50 [4]: 24 µM (active)

COc1ccc(F)cc1CN1CCN(C(=O)CCC(=O)Nc2nnc(CC(C)C)s2)CC1
EC50 [10]: > 150 µM (inconclusive)
EC50 (BJ [11]): > 150 µM (inconclusive)
EC50 (BJ [12]): > 150 µM (not active)
EC50 (BJ [13]): > 133 µM (inactive)
EC50 (BJ [14]): > 150 µM (not active)

COc1cc(NC(=O)c2cccs2)c(OC)cc1NC(=O)CCC(=O)Nc1ccc2ncccc2c1
EC50 [10]: > 150 µM (not active)
EC50 (BJ [11]): > 150 µM (not active)
EC50 (BJ [12]): 8.14 µM (active)
EC50 (BJ [13]): 4.28 µM (inconclusive)
EC50 (BJ [14]): > 150 µM (not active)

COC(=O)c1ccc(CSc2nnc(-c3c[nH]c4ccccc34)n2C)o1
IC50 [1]: 13.8 µM (inactive)

C[C@@H]1CCCCO[C@@H](CN(C)C(=O)Nc2ccc(C(F)(F)F)cc2)[C@@H](C)CN([C@H](C)CO)C(=O)c2cc(NC(=O)Cc3ccccc3)ccc2O1
AC50 [15]: 4.33 µM (active)

Cc1cccc(S(=O)(=O)Nc2nc3ccccc3nc2Nc2cccc(C(=O)O)c2)c1
AC50 [5]: 91.1 µM (active)

Nc1ncnc2c1ncn2[C@@H]1O[C@H](CNCc2ccc(OCC(=O)Nc3ccccn3)cc2)[C@@H](O)[C@H]1O
AC50 [5]: > 100 µM (inactive)

O=C(Cc1ccc(NC(=O)C2CCN(C(=O)c3ccccc3)CC2)cc1)Nc1ccc(C(=O)N2CCOCC2)cc1
IC50 [1]: 6.48 µM (active)

O=[N+]([O-])c1cccc(/C(O)=C(/C([S-])=Nc2cccc3ccccc23)[n+]2ccccc2)c1
IC50 (Vero [7]): > 25 µM (active)

COc1ccc(C2CC(c3cccs3)=NN2C(=O)CCl)cc1OC (centres undefined)
CC50 (Vero [6]): 3.51 µM (active)
EC50 [10]: 5.26 µM (inconclusive)
EC50 (BJ [11]): 6.05 µM (inconclusive)
EC50 (BJ [12]): 6.92 µM (active)
IC50 (Vero [7]): > 25 µM (active)
EC50 (BJ [14]): 0.834 µM (active)
EC50 (Protein RecA): 1.41 µM (active)
AC50 [3]: 8.43 µM (active)
EC50 [16]: 2.21 µM (active)
EC50 [17]: 2.64 µM (active)

CCCCSc1cc(O)nc(N)n1
IC50 [1]: 22.2 µM (inactive)

C[C@H](CO)N1C[C@H](C)[C@@H](CN(C)Cc2ccc(C(=O)Nc3ccccc3N)cc2)Oc2c(NC(=O)c3nc4ccccc4s3)cccc2C1=O
AC50 [15]: 1.6 µM (active)

O=C(COC(=O)c1ccc(F)c([N+](=O)[O-])c1)NC(=O)NCc1ccccc1
AC50 [4]: 13.6 µM (active)

C[C@H]1CN([C@@H](C)CO)C(=O)c2cccc(NC(=O)CCCCCC(=O)Nc3ccccc3N)c2O[C@H]1CN(C)S(=O)(=O)c1ccc(Cl)cc1
AC50 [15]: 3.53 µM (active)

C[C@H](CO)N1C[C@H](C)[C@H](CN(C)S(=O)(=O)c2cccs2)Oc2c(NC(=O)Nc3ccc(C(F)(F)F)cc3)cccc2C1=O
AC50 [15]: 4.19 µM (active)

Nc1cc[n+]([O-])cc1CCc1ccccc1
IC50 [1]: 23.3 µM (inactive)

O=C(CN1C(=O)NC2(CCCc3ccccc32)C1=O)c1ccc(Br)cc1 (centres undefined)
AC50 [5]: > 100 µM (inactive)

O=C(O)c1ccc2c(c1)C(=O)N(c1ccc(Nc3ccccc3)cc1)C2=O
AC50 [5]: > 100 µM (inactive)
AC50 [18]: 25.8 µM (active)

Reference: ChEMBL document CHEMBL1201862, “PubChem BioAssay data set” (2004)
